Source: patent publication US5589461A, “Active substance for inhibiting the proliferation rate of hepatocytes” (priority 1994, dated 1996)
Values joined by “and” are separate entries in the source; they are usually repeats but may differ in a detail not shown here. Equal entries are not always repeated. Where a SMILES comes first, the peptide text is derived from it.

Experiments:
hepatitis B viruses = assay: synthesis of hepatitis B viruses in transfected Hep G2 cells (HBSAG/HBEAG radioimmunoassay); type: cell-based; details: for Ratio of mean values in cpm before/after treatment, HBEAG / Ratio of mean values in cpm before/after treatment, HBSAG: six days
Source text: Hepatitis B viruses can be cultivated in Hep G2 cells. For this purpose, a recombining plasmide containing the complete virus DNA is channelled into the cells. Starting from this, the synthesizing mechanism of the cells transfected in this way will produce hepatitis B viruses (cf. Chungming Chang et al., EMBO J. 6, p. 675-680, 1987) The virus synthesis manifests itself by secreting large quantities of two surface antigens of that virus (HBSAG and HBEAG). The antigens can be detected by means of a radioimmunoassay (RIA). In this determination, an unknown quantity of antigen (HBSAG and HBEAG) competes with a known quantity of radioactively marked antigen for a limited number of antibody binding positions in a predetermined quantity of the antiserum. In the state of equilibrium, the surplus antigen exists in both the bound and the free dissolved conditions. Now, if the quantity of radioactively marked antigen is constant in a series of reactions, the proportion bound to the antibody will decrease in accordance with an increasing quantity of unmarked antigen added to the individual samples.
For practical execution of this process, a calibration curve is established first, using known quantities of marked and unmarked antigen, which will then permit determination of the unknown quantity of antigen. After incubation, the free antigen is separated from the bound antigen, and the two fractions are measured separately.
A Hep-G2 cell culture was steadily transfected with hepatitis B viruses as described by SELLS et al., Proc. Natl. Acad. Sci. USA 1987, 84, p. 1005-1009. The transfected cells were sowed in ten 4.5 cm dishes at a density of 8×10^5 cells, and in four 9 cm dishes at a density of 1.6×10^6 cells respectively. After 24 hours, fresh medium was added, containing the tripeptide SDK at concencentrations of 0.5 ng/ml, 1.0 ng/ml, 3.0 ng/ml and 5 ng/ml for each two 4.9 cm dishes, or 1.0 ng/ml for each two 9 cm dishes respectively. The tripeptide had been prediluted in completed DMEM ([…]) and sterilized by filtration. The remaining dishes served as a control, receiving the pure medium. The old medium was conserved in the supernatant for measurement of antigens, in order to exclude artifacts due to possible heterogeneities of cell density. The samples of medium for measurement of antigens were taken after six days. Measurement was effected using a standard RIA kit (HBSAG Ansria II/125, type 7802, and HBEAG Abbott Hbe (rDNA), type 1237/24, both from Abbott, Wiesbaden), according to instructions for use. The experiments were conducted with twin samples (two dishes each), since the cells from one dish were not enough.

Hep G2 cells = assay: human tumor cells in tissue culture (cell growth, 3H-thymidine incorporation); type: cell-based
Description: The effect of the tripeptide on human tumor cells was tested in an in-vitro model. For this purpose, Hep G2 cells were used. This cell line is a human hepatom from the tumor cell bank of "Deutsches Krebsforschungszentrum Heidelberg ", which is cultivated as a monolayer in 90% DMEM (Dulbecco's modified Eagle's medium)/10% FKS (fetal calf serum) in a subculture interval of three to five days. Sixty dishes of each of the experimental and control cultures were used. A solution of 20 mg of SDK in 0.2 ml of 0.9% NaCl served as a stock solution which was diluted with a physiological sodium chloride solution as required for each case.
One day after transferring the cells, 0.2 ml of tripeptide SDK dissolved in 0.9% NaCl (concentration: 1 μg/ml) were added to each 10 ml of culture medium. The control dishes received 0.2 ml of solvent.
This test was repeated, this time adding 0.5 ng, 1.0 ng, 2.0 ng and 4.0 ng of SDK in 0.9% NaCl per 1 ml of culture medium. The control dishes again received the corresponding quantity of solvent. Moreover, 0.05 mCi 6-^3 H-thymidine were added to the cultures […] prior to expiration of the observation period, followed by incubation for 1 hour. The DNA of the cells was isolated as described under item (1.), and the radioactivity was measured- The results are listed in the following chart.

[1] = test system: IgM secreting B-lymphocytes; details: mice; cited from earlier work
[2] = test system: YOSHIDA liver tumor cell ascites AH 130; assay: development of the YOSHIDA ascites AH 130 in rat; type: in vivo
Description: Two groups, each comprising five female Wistar rats weighing approx. 100 grams, were inoculated with the YOSHIDA liver tumor cell ascites AH 130 of a rat having been infected 8 days ago. 0.5 ml of ascites fluid were injected intraperitoneally (i.p.) to each animal. Starting on the seventh day after ascites inoculation, 1 μg of SDK (dissolved in 1 ml of 0.9% NaCl solution) was injected i.p. to each animal of one group (five rats) during four days. Then the animals of both groups were killed. The following parameters were determined:
(a) Weight or respectively volume of ascites fluid. The killed rats were weighed, the ascites was sucked off as completely as possible, and the animals were weighed again. The difference resulting from these two ponderations corresponded to the ascites volume (1 g ≈1 ml).
(b) Number of tumor cells in the ascites 2 ml of the sucked-off ascites for each animal were placed into an EDTA tube, to prevent cells from agglomerating. With an aliquot thereof, the number of tumor cells was measured in a Coulter counter and extrapolated for the total volume.
The third and fourth columns give the respective results of twin measurements.

hepatocytes = assay: proliferation rate of hepatocytes in rats after 66% partial hepatectomy (3H-thymidine, specific radioactivity of DNA); type: in vivo, rat
Source text: To carry out these experiments, young female Wistar rats weighing 100 g were used, which had been provided from the SPF animal house department of the Max-Planck-Instut fur Biochemie in D-82152 Martinstied.
Seven groups of rats were subjected to 66% partial hepatectomy. In each experimental group 4 animals were used. In a slight modification of the Higgins and Anderson method (Higgins, G. M., Anderson, R. M., Archives of Pathology 12 (1931), p. 186-202), the rats were submitted to partial hepatectomy between 13.00 h and 13.30 h. The tetrapeptide SDKP synthesized in the conventional way and dissolved in 1 ml of 0.9% NaCl was injected intraperitoneally (i.p.) to three groups immediately after operation and to three other groups 10 hrs after the operation, each three with different quantities (500 μg, 1 μg). The seventh group served as a control group, receiving the solvent only. […] The livers were conserved at -20° C. up to the time of determining the specific radioactivity of the DNA in the hepatocyte nuclei.
This specific radioactivity was used as a marker for the proliferation behaviour of the hepatocytes: Thymidine is incorporated only in DNA (not e.g. in RNA), and significant DNA synthesis is effected only during cell proliferation. The specific radioactivity of the DNA (in dpm/μg DNA) is the quotient of the result of radioactivity measurement of a sample (in dpm, i.e. disintegrations per minute) by the DNA content of that sample (in μg). The proliferation promoting or proliferation inhibiting character of the peptide (depending on the administered dose and the time of administration after partial hepatectomy) was determined by establishing the percentage of the specific radioactivity of the DNA in the hepatocyte nuclei of the experimental group as compared with the specific radioactivity of the control group associated with each experiment.
For determination of the specific radioactivity, the DNA was first extracted from the liver. […]
For measurement of the radioactivity, scintillation counting liquid was added to 1 ml of the extract, and ^3 H measurement was effected. […]

human T-cells = details: cited from earlier work
[3] = 0.5 ng of SDK per ml of medium, 4.5 cm dishes
[4] = 1.0 ng of SDK per ml of medium, 4.5 cm dishes
[5] = 1.0 ng of SDK per ml of medium, 9.0 cm dishes
[6] = 3.0 ng of SDK per ml of medium, 4.5 cm dishes
[7] = 5.0 ng of SDK per ml of medium, 4.5 cm dishes

In the case of `NCCCC[C@H](NC(=O)[C@H](CC(=O)O)NC(=O)[C@@H](N)CO)C(=O)O` [SDK, Ser-Asp-Lys] (H-Ser-Asp-Lys-OH), the “Ratio of mean values in cpm before/after treatment, HBEAG” value (hepatitis B viruses; [3]) is reported as 6.10, the “Ratio of mean values in cpm before/after treatment, HBSAG” value (hepatitis B viruses; [3]) is reported as 4.47 and the “Ratio of mean values in cpm before/after treatment, HBEAG” value (hepatitis B viruses; [4]) is reported as 6.22. The “Ratio of mean values in cpm before/after treatment, HBSAG” value (hepatitis B viruses; [4]) was 4.18, the “Ratio of mean values in cpm before/after treatment, HBEAG” value (hepatitis B viruses; [5]) was 6.59 and the “Ratio of mean values in cpm before/after treatment, HBSAG” value (hepatitis B viruses; [5]) was 3.89. For the same compound, the “Ratio of mean values in cpm before/after treatment, HBEAG” value (hepatitis B viruses; [6]) was 7.31, the “Ratio of mean values in cpm before/after treatment, HBSAG” value (hepatitis B viruses; [6]) was 4.57 and the “Ratio of mean values in cpm before/after treatment, HBEAG” value (hepatitis B viruses; [7]) was 8.00. The “Ratio of mean values in cpm before/after treatment, HBSAG” value (hepatitis B viruses; [7]) was 4.18, the “concentration of antigens, and hence the virus synthesis” value (hepatitis B viruses; transfected Hep G2 cells, SDK vs untreated) was “significantly reduced” and the “Inhibition of proliferation in %” value (Hep G2 cells; 0.5 ng of SDK per ml of medium) was 19.3%. The “Inhibition of proliferation in %” value (Hep G2 cells; 1.0 ng of SDK per ml of medium) was 44.9%, the “Inhibition of proliferation in %” value (Hep G2 cells; 2.0 ng of SDK per ml of medium) was 34.0% and the “Inhibition of proliferation in %” value (Hep G2 cells; 4.0 ng of SDK per ml of medium) was 12.4%. For the same compound, the “concentration of maximum proliferation inhibiting effect” value (Hep G2 cells; Hep G2, per ml of culture medium) was 1 ng/mL, the “immunomodulating effect: humoral response (generation of IgM secreting B-lymphocytes) to red blood cells of sheep” value [1] was “stimulation of the humoral response” and the “average number of tumor cells as % of the number found in control animals” value ([2]; 1 μg SDK/animal i.p. during four days) was 19.1%. The Ascites ([2]; 1 μg SDK/animal i.p. during four days from seventh day after ascites inoculation) was 5.1 mL and 5.2 mL and 4.3 mL and 5.7 mL, the quantity of ascites ([2]; 1 μg SDK/animal vs control) was “drastic decrease” and the “total number of tumor cells” value ([2]; 1 μg SDK/animal vs control) was “drastic decrease”. For the same compound, the “Cell number total, mean value + standard deviation” value ([2]; 1 μg SDK/animal, five rats) was 147.7 ± 70.1 × 10^6, the “effect on hepatocyte proliferation” value (hepatocytes; 1 μg injected after a certain time interval (1 h, 3, 6, 10 hrs after operation)) was “inhibiting effect” and the “effect on hepatocyte proliferation” value (hepatocytes; 1 μg injected immediately after operation) was “slightly proliferation promoting effect”. The decrease in proliferation (hepatocytes; 1 μg injected ten hours after operation) was “about fifty” and the “rosette formation due to interaction of human T-cells and sheep erythrocytes” value (human T-cells) was “inhibits rosette formation”.
